This note sets out measurements from ChEMBL document CHEMBL1146007, “Binding of sulfonyl-containing arylalkylamines at human 5-HT6 serotonin receptors” (J Med Chem, 2006).

Molecules are shown by their SMILES.

The target of this assay is 5-hydroxytryptamine receptor 6 (Homo sapiens, UniProt P50406). Briefly: Binding affinity to human 5HT6 receptor in HEK293 cells by radioligand binding assay. The assay is classed as cell-based.
Sequence of 5-hydroxytryptamine receptor 6 (P50406 whole entry): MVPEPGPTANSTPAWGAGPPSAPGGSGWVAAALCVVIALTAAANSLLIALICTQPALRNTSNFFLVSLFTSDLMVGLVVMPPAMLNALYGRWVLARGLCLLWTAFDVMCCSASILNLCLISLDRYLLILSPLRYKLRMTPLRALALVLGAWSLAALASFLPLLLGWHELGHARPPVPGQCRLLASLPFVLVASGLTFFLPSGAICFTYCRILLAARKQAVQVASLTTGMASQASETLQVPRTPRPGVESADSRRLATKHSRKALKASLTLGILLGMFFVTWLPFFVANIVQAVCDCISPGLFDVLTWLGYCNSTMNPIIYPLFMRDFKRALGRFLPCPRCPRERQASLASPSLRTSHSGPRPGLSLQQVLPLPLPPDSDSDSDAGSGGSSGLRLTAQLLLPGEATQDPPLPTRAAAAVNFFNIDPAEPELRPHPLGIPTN
One may read the Ki as the dissociation constant of the complex between target and ligand, obtained from inhibition or displacement. A high value points to lower affinity. In turn, `NCCc1cccc(S(=O)(=O)c2ccccc2)c1` yielded a Ki of 50 nM.

`O=S(=O)(c1ccccc1)c1ccccc1N1CCNCC1` gave a Ki of 4000 nM.

With `NCc1cccc(NS(=O)(=O)c2ccccc2)c1`, the affinity corresponds to a Ki of 290 nM.

Regarding `O=S(=O)(c1ccccc1)c1ccc(N2CCNCC2)cc1`, the Ki is 6.9 nM.

`NCCc1cccc(Sc2ccccc2)c1` registered a Ki of 115 nM.

In the case of `NCCc1cccc(NS(=O)(=O)c2ccccc2)c1`, the inhibition constant Ki worked out at 21 nM.

Regarding `CN(C)CCc1cccc(NS(=O)(=O)c2ccccc2)c1`, the Ki was found to be 52 nM.

`CNCCc1cccc(NS(=O)(=O)c2ccccc2)c1`: the affinity corresponds to a Ki of 38 nM.

Take `O=S(=O)(c1ccccc1)c1cccc(N2CCNCC2)c1`: the Ki came to 1.2 nM.

Compound `O=S(=O)(Nc1cccc(N2CCNCC2)c1)c1ccccc1` showed a Ki of 62 nM.

Turning to `NCCc1ccc(S(=O)(=O)c2ccccc2)cc1`, the inhibitory constant (Ki) came out at 37 nM.

Regarding `NCCCc1cccc(NS(=O)(=O)c2ccccc2)c1`, the inhibition constant Ki amounted to 230 nM.

`Nc1cccc(NS(=O)(=O)c2ccccc2)c1` registered a Ki of 2840 nM.

Compound `COc1ccc(NS(=O)(=O)c2ccccc2)cc1CCN` gave a Ki of 17 nM.

Take `CN(C)CCc1ccn(S(=O)(=O)c2ccccc2)c1`: the Ki worked out at 15 nM.

As to `NCCc1cccc(S(=O)(=O)Nc2ccccc2)c1`, affinity was put at a Ki of 70 nM.

The compound `O=S(=O)(Nc1ccc(N2CCNCC2)cc1)c1ccccc1` displayed a Ki of 85 nM.

For `NCCc1ccc(NS(=O)(=O)c2ccccc2)cc1`, the Ki worked out at 38 nM.
